pEC50: −log10 of the molar value. “Also recorded” adds a separate entry of the source. Where a name gives a salt, the structure may show the parent alone. Read-outs that look alike come from different tables or passages of the source.
Assays:
head-twitch response = experiment: Head-twitch response; format: in vivo, mouse
[1] = target: T1, psychLight2 (PSYLI2 cells) (Homo sapiens, UniProt P28223, DEL264-312/E264Q/I181A/I315S/INS316[…]/S314L); format: cell-based
[2] = target: psychLight2 (HEK293T cell line stably expressing psychLight2, PSYLI2) (Homo sapiens, UniProt P28223, DEL264-312/E264Q/I181A/I315S/INS316[…]/S314L); experiment: PSYLI2 high-content imaging assay, agonist mode; format: cell-based
psychLight2 [3] = format: cell-based, mouse
[4] = target: psychLight1 (human 5-HT2AR-based fluorescent sensor) (Homo sapiens, UniProt P28223, DEL264-312/E264Q/I181A/I315S/INS316[…]/S314L); format: cell-based
psychLight2 [5] = target: psychLight2 (Homo sapiens, UniProt P28223, DEL264-312/E264Q/I181A/I315S/INS316[…]/S314L); conditions: mouse
locomotion = experiment: Locomotion assay; format: in vivo, mouse; conditions: C57BL/6J mice, i.p., n = 4 mice
[6] = tested on: cultured rat embryonic cortical neurons; experiment: Dendritogenesis in cultured rat embryonic cortical neurons; format: cell-based; conditions: Sholl analysis, Nmax
C57BL/6J mice = experiment: Forced swim test; format: in vivo, mouse
[7] = tested on: VMAT2 heterozygous (VMAT2-HET) and WT mice; experiment: Sucrose preference test; format: in vivo, mouse; conditions: 15 mg/kg i.p., single administration
[8] = target: T1, psychLight2 (PSYLI2 cells); format: cell-based; remark: listed apart in the source
[9] = tested on: endogenous 5-HT release (psychLight2 response); set-up: species or system mouse; conditions: electrical stimulation, incubation with 50 μM
[10] = C57BL/6J mice, i.p., dose-response, n = 4 mice
[11] = 10 μM compound treatment (Fig. 4C)

psychLight1 (human 5-HT2AR-based fluorescent sensor), sequence (P28223 1-471 with tags or gaps with the stated changes): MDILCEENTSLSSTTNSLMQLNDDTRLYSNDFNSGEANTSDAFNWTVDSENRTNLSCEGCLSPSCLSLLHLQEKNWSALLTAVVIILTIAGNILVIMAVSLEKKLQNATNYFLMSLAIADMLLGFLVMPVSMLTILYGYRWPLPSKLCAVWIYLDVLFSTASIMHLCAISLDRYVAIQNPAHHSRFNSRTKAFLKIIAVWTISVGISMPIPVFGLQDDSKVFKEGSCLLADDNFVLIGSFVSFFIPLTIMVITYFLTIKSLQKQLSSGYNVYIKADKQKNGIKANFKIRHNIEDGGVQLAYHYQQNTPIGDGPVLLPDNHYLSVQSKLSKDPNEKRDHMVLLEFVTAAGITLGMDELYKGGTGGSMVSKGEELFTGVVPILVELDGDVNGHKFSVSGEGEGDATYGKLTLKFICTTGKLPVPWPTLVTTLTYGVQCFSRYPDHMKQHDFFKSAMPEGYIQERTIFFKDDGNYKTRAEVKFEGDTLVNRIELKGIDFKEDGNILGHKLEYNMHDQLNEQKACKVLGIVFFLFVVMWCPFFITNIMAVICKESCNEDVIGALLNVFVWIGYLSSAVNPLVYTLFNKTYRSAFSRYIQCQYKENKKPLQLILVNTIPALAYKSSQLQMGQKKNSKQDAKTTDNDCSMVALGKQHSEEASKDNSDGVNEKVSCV
psychLight2 (HEK293T cell line stably expressing psychLight2, PSYLI2), sequence (P28223 1-471 with tags or gaps with the stated changes): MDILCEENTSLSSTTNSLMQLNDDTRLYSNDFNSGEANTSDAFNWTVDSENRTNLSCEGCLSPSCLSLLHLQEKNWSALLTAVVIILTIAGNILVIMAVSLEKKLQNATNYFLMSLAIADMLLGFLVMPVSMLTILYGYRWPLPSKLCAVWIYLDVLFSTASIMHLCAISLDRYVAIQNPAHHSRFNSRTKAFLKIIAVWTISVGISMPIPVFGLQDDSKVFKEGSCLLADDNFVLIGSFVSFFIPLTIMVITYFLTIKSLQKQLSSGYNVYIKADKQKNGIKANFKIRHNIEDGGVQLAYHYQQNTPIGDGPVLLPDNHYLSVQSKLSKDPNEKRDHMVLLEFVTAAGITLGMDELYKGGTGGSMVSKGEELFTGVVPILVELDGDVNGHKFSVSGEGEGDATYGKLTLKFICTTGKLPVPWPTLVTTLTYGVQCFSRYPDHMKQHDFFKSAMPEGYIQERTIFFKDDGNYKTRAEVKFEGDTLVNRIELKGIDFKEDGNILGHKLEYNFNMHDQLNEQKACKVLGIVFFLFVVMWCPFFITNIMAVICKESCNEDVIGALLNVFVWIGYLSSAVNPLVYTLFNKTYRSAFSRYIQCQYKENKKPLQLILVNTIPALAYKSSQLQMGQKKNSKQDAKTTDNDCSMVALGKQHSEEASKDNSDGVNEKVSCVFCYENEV

CN(C)CCc1c[nH]c2ccc(Br)cc12 [5-Br-DMT, 5-bromo-N,N-dimethyltryptamine]
head-twitch response (head-twitch response; [10]): failed to induce HTRs at any dose | ligand score [1]: negative

CN(C)CCc1c[nH]c2ccc(Cl)cc12 [5-Cl-DMT, 5-chloro-N,N-dimethyltryptamine]
head-twitch response (head-twitch response; [10]): produced robust HTRs | ligand score [1]: positive

CN(C)CCc1c[nH]c2ccc(F)cc12 [5-F-DMT, 5-flouo-N,N-dimethyltryptamine]
head-twitch response (head-twitch response; mouse, in vivo, ip): produced robust HTRs | ligand score [1]: positive

NCCc1c[nH]c2ccc(O)cc12 [5-HT, serotonin]
PSYLI2 fluorescence ΔF/F [2]: 46.3 ± 1.4% | PSYLI2 response [2]: 44.8 ± 0.8% | psychLight2 fluorescence response (ΔF/F) [2]: 38.2 ± 2.4% | ΔpL2/tdT (psychLight2 [3]): 111.1 ± 1.8% | psychLight1 fluorescence response (ΔF/F) [4]: 77.3 ± 2.4%

COc1ccc2[nH]cc(CCN(C)C)c2c1 [5-MeO-DMT, 5-methoxy-N,N-dimethyltryptamine]
head-twitch response during fiber photometry (head-twitch response; 50 mg/kg, i.p., within 1 min of administration, n = 3 animals): concomitant increase in HTR | psychLight2 fluorescence response (ΔF/F) [2]: 24.1 ± 4.6% | Emax [4]: 48.4% | psychLight1 fluorescence response (ΔF/F) [4]: 48.4 ± 3.1% | psychLight2 fluorescence in vivo (psychLight2 [5]): sharp increase in fluorescence

COc1ccc2c(CCN(C)C)c[nH]c2c1 [6-MeO-DMT, 6-methoxy-N,N-dimethyltryptamine]
psychLight2 fluorescence response (ΔF/F) ([2]; 10 μM, high content imager (Suppl. Fig. 3C)): −3.0 ± 2.7% | competition with / block of 5-HT-induced activation of psychLight [4]: can compete off 5-HT resulting in a reduction in psychLight fluorescence; also recorded: capable of binding to the receptor despite lacking efficacy | psychLight1 fluorescence response (ΔF/F) ([4]; 10 μM, confocal microscope, n = 3): −1.1 ± 4.6%

COc1ccc2c(ccn2C[C@@H](C)N(C)C)c1 [AAZ-A-154]
locomotion (locomotion): only decreases locomotion at a very high dose (100 mg/kg) | head-twitch response (head-twitch response; [10]): failed to produce any head-twitches, even up to doses as high as 100 mg/kg | dendritic arbor complexity [6]: increases dendritic arbor complexity to a comparable extent as the fast-acting antidepressant ketamine | immobility in the forced swim test (C57BL/6J mice; 20 mg/kg i.p., single administration, n = 12): decreased immobility | onset and duration of antidepressant-like effects in FST (C57BL/6J mice; mouse, in vivo): both rapid (30 min) and long-lasting (1 week) antidepressant-like effects | sucrose preference in WT mice [7]: did not modify sucrose preference in the WT animals | sucrose preference in VMAT2-HET mice ([7]; 1% sucrose): exhibited a sucrose preference that was indistinguishable from WT controls | persistence of anti-anhedonic effect ([7]; VMAT2-HET mice): at least 12 days

CN(C)CCc1c[nH]c2ccc(O)cc12 [BUFO, N,N-dimethylserotonin]
PSYLI2 fluorescence ΔF/F [2, 11]: 22.3 ± 2.8%

CN(C)CCc1c[nH]c2ccccc12 [DMT, N,N-dimethyltrytamine]
Emax [4]: 12.4% | pEC50 ([4]; read-out: half maximal effective concentration (EC50)): 6.20

CNCCc1c[nH]c2ccc(O)cc12 [N-5-HT, N-methylserotonin]
PSYLI2 fluorescence ΔF/F [2, 11]: 24.6 ± 1.7%

CP(C)C.F[P-](F)(F)(F)(F)F.F[P-](F)(F)(F)(F)F.NCCc1c[nH]c2ccc(O)cc12.[Ru+2].c1ccc(-c2ccccn2)nc1.c1ccc(-c2ccccn2)nc1 [RuBi–5-HT]
Tauoff (psychLight2 [3]): 5.4 ± 0.9 ms | peak ΔpL2/tdT normalized to baseline (psychLight2 [3]): 111.2 ± 0.7%

CN1CCc2cccc3c2[C@H]1Cc1ccc(O)c(O)c1-3 [apomorphine, R-(−)-apomorphine hydrochloride hemihydrate]
Schild regression analysis (pA2) [8]: potent psychLight competitive antagonists

CN(C)CCC[C@@]1(c2ccc(F)cc2)OCc2cc(C#N)ccc21 [escitalopram]
amplitude of the psychLight2 response ΔF/F [9]: 18.4 ± 4.3%

O=C(c1ccc(F)cc1)C1CCN(CCn2c(=O)[nH]c3ccccc3c2=O)CC1 [ketanserin]
PSYLI2 response [2]: −12.7 ± 0.5% | psychLight2 fluorescence response (ΔF/F) [2]: −3.5 ± 1.6% | competition with / block of 5-HT-induced activation of psychLight [4]: able to block 5-HT-induced activation of psychLight | effect on psychLight1 fluorescence [4]: either had minimal effect on psychLight1 fluorescence or slightly quenched the sensor | psychLight1 fluorescence response (ΔF/F) [4]: −1.7 ± 0.3% | psychLight2 fluorescence in vivo (psychLight2 [5]): decreased

c1ccc(C2(N3CCCCC3)CCCCC2)cc1 [phencyclidine]
ligand score [1]: ~0

COC(=O)[C@@H]1C[C@H](OC(C)=O)C(=O)[C@H]2[C@@]1(C)CC[C@H]1C(=O)O[C@H](c3ccoc3)C[C@]21C [salvinorin A]
ligand score [1]: ~0

NCCc1c[nH]c2ccccc12 [tryptamine]
PSYLI2 fluorescence ΔF/F [2]: produces a robust response
